Data on nine compounds can be found in ChEMBL document CHEMBL1123958, “Synthesis and antiviral properties of (E)-5-(2-bromovinyl)-2'-deoxycytidine-related compounds” (J Med Chem, 1988).

Assay [1] relates to Human alphaherpesvirus 2. Briefly: Concentration required to reduce HSV-2 virus induced cytopathogenicity in rabbit cell kidney culture (G cells). The class given is functional, organism-based. A general note: Cytopathic effects are the visible damage that an infection or toxin causes in cultured cells.
Assay [2] relates to Human alphaherpesvirus 2. Briefly: Concentration required to reduce HSV-2 virus induced cytopathogenicity in rabbit cell kidney culture (Lyons cells). The class given is functional, organism-based.
The subject of assay [3] is Human alphaherpesvirus 1. The assay can be described thus: Concentration required to reduce HSV-1 virus induced cytopathogenicity in rabbit cell kidney culture (F cells). Format: functional, organism-based.
For assay [4], the system named is Vesicular stomatitis virus. The assay can be described thus: Concentration required to reduce vesicular stomatitis virus induced cytopathogenicity in rabbit cell kidney culture. Format: functional, organism-based.
Assay [5] has as its system Human alphaherpesvirus 2. The assay can be described thus: Concentration required to reduce HSV-2 virus induced cytopathogenicity in rabbit cell kidney culture (196 cells). Format: functional, organism-based.
The test system of assay [6] is Human alphaherpesvirus 1. Briefly: Concentration required to reduce HSV-1 virus induced cytopathogenicity in rabbit cell kidney culture (KOS cells). The class given is functional, organism-based.
Assay [7] concerns Human alphaherpesvirus 1. The assay can be described thus: Concentration required to reduce HSV-1 virus induced cytopathogenicity in rabbit cell kidney culture (McIntyre cells). The class given is functional, organism-based.
Assay [8] is filed under the species Oryctolagus cuniculus. The assay can be described thus: Minimum cytotoxic concentration causing microscopically detectable alteration of normal cell morphology of rabbit kideny cells. Format: functional. On the set-up: unit not given here.
Assay [9] is filed under the species Oryctolagus cuniculus. The assay can be described thus: Minimum cytotoxic concentration causing microscopically detectable alteration of normal cell morphology of rabbit kidney cells. The class given is functional.

In the case of `CC(=O)OC[C@H]1O[C@@H](n2cc(/C=C/Br)c(-n3cncn3)nc2=O)C[C@@H]1OC(C)=O`, the Concentration is 20 µg/mL in the assay on Human alphaherpesvirus 2 [1]; 20 µg/mL in the assay with Human alphaherpesvirus 2 [2]; 0.2 µg/mL in the assay with Human alphaherpesvirus 1 [3]; above 200 µg/mL in [4]; 20 µg/mL with Human alphaherpesvirus 2 [5]; 0.1 µg/mL in the assay with Human alphaherpesvirus 1 [6]. In the assay on Human alphaherpesvirus 1 [7], this compound yielded a Concentration of 0.07 µg/mL.
Consider `CC(=O)OC[C@H]1O[C@@H](n2cc(C)c(-n3cncn3)nc2=O)C[C@@H]1OC(C)=O`, for which the Concentration (with Human alphaherpesvirus 2 [1]; in the assay on Human alphaherpesvirus 2 [2]; in the assay with Human alphaherpesvirus 1 [3]; in [4]; in the assay on Human alphaherpesvirus 2 [5]; in the assay with Human alphaherpesvirus 1 [6]) was above 40 µg/mL throughout. This compound also registered a Concentration with Human alphaherpesvirus 1 [7] above 40 µg/mL.
Regarding `Cc1cn(C2CC(O)C(CCl)O2)c(=O)nc1-n1cncn1` (stereo not drawn), the Concentration (with Human alphaherpesvirus 2 [1]; in the assay with Human alphaherpesvirus 2 [2]; with Human alphaherpesvirus 1 [3]; in assay [4]; with Human alphaherpesvirus 2 [5]; in the assay on Human alphaherpesvirus 1 [6]) was above 10 µg/mL each time. In addition, in the assay on Human alphaherpesvirus 1 [7], the Concentration is above 10 µg/mL. The same compound returned an MCC in the assay filed under Oryctolagus cuniculus [8] above 10.
As to `O=c1nc(-n2cncn2)c(/C=C/Br)cn1[C@H]1C[C@H](O)[C@@H](CO)O1`, the Concentration in the assay with Human alphaherpesvirus 2 [1] is 20 µg/mL; in the assay with Human alphaherpesvirus 2 [2], 70 µg/mL; in the assay with Human alphaherpesvirus 1 [3], 0.07 µg/mL; in assay [4], above 200 µg/mL; in the assay on Human alphaherpesvirus 2 [5], above 200 µg/mL; in the assay with Human alphaherpesvirus 1 [6], 0.07 µg/mL. Also, the Concentration with Human alphaherpesvirus 1 [7] worked out at 0.1 µg/mL.
As for `Cc1cn([C@H]2C[C@H](O)[C@@H](CO)O2)c(=O)nc1-n1cncn1`, the Concentration was 20 µg/mL with Human alphaherpesvirus 2 [1]; 20 µg/mL in the assay on Human alphaherpesvirus 2 [2]; above 40 µg/mL in the assay on Human alphaherpesvirus 1 [3]; above 40 µg/mL in assay [4]; 20 µg/mL in the assay on Human alphaherpesvirus 2 [5]; above 40 µg/mL in the assay with Human alphaherpesvirus 1 [6]. Moreover, the Concentration in the assay with Human alphaherpesvirus 1 [7] turned out to be 20 µg/mL.
As to `CC(=O)OC[C@H]1O[C@@H](n2cc(/C=C/Br)c(=O)[nH]c2=O)C[C@@H]1OC(C)=O`, the Concentration in the assay on Human alphaherpesvirus 2 [1] was 20 µg/mL; with Human alphaherpesvirus 2 [2], 40 µg/mL; with Human alphaherpesvirus 1 [3] it was 0.1 µg/mL; in [4], above 300 µg/mL; in the assay on Human alphaherpesvirus 2 [5], 100 µg/mL; in the assay with Human alphaherpesvirus 1 [6] it was 0.1 µg/mL. The Concentration in the assay on Human alphaherpesvirus 1 [7] turned out to be 0.2 µg/mL. In addition, in the assay filed under Oryctolagus cuniculus [8], the MCC is recorded as above 300.
For the compound `O=c1nc(-n2cncn2)c(/C=C/Br)cn1C1CC(O)C(CCl)O1` (stereo not drawn), the Concentration was above 100 µg/mL in the assay on Human alphaherpesvirus 2 [1]; above 100 µg/mL with Human alphaherpesvirus 2 [2]; above 100 µg/mL in the assay with Human alphaherpesvirus 1 [3]; above 100 µg/mL in assay [4]; above 100 µg/mL in the assay on Human alphaherpesvirus 2 [5]; 70 µg/mL in the assay with Human alphaherpesvirus 1 [6]. Moreover, in the assay with Human alphaherpesvirus 1 [7], the Concentration is above 100 µg/mL. The same compound yielded an MCC in the assay filed under Oryctolagus cuniculus [8] above 100.
As for `O=c1[nH]c(=O)n([C@H]2C[C@H](O)[C@@H](CO)O2)cc1/C=C/Br` [BRIVUDINE], the MCC in the assay filed under Oryctolagus cuniculus [9] is listed as above 400. The Concentration was 2 µg/mL in the assay with Human alphaherpesvirus 2 [1]; 7 µg/mL in the assay with Human alphaherpesvirus 2 [2]; 0.02 µg/mL with Human alphaherpesvirus 1 [3]; above 400 µg/mL in assay [4]; 30 µg/mL in the assay with Human alphaherpesvirus 2 [5]; 0.02 µg/mL in the assay with Human alphaherpesvirus 1 [6]. In the assay on Human alphaherpesvirus 1 [7], this compound yielded a Concentration of 0.02 µg/mL.
For the compound `Nc1nc(=O)n([C@H]2C[C@H](O)[C@@H](CO)O2)cc1/C=C/Br`, the Concentration is 20 µg/mL with Human alphaherpesvirus 2 [1]; above 400 µg/mL in the assay on Human alphaherpesvirus 2 [2]; 0.2 µg/mL in the assay on Human alphaherpesvirus 1 [3]; above 400 µg/mL in [4]; above 400 µg/mL in the assay on Human alphaherpesvirus 2 [5]; 0.1 µg/mL in the assay with Human alphaherpesvirus 1 [6]. Moreover, in the assay with Human alphaherpesvirus 1 [7], the Concentration stood at 0.2 µg/mL. In the assay listed under Oryctolagus cuniculus [8], this compound yielded an MCC above 400.
